Measurements as given in patent US20240299542A1, “NATURAL KILLER CELLS ENGINEERED TO REDUCE OR ELIMINATE CBL-B AND USES THEREOF” (City of Hope, priority 2021, published 2024).

Columns and labels:
granzyme B = test: RNA-seq of siRNA-transduced primary human NK cells; format: cell-based; conditions: without or with IL-15 (10 ng/ml) 16 h, vs Scr siRNA
Description: (§1) FIGS. 4A-4D depict the results of a study showing that downregulation of Cbl-b increases IFN-γ secretion in IL-15-activated primary human NK cells. (FIG. 4A) RNAseq was conducted using primary human NK cells transduced with either Cbl-b siRNA or Scr siRNA without or with incubation in IL-15 (10 ng/ml) for 16 h (4 donors for each group). […] (FIG. 4B) qRT-PCR was performed to quantify the mRNA levels of IFN-γ (n=6 donors) after IL-15 (10 ng/ml) 6 h stimulation. (FIG. 4C) The percentage of intracellular IFN-γ+ cells in un-transduced NK cells or those transduced with Cbl-b siRNA or Scr siRNA, each activated with IL-15 (10 ng/ml) for 24 h (11.5% vs 4.338%; P=0.0008; n=5 donors). (FIG. 4D) Supernatants were collected after IL-15 (10 ng/ml) for 24 h and IFN-γ concentrations measured by ELISA (18115 pg/ml vs 882.5 pg/ml; P=0.0099; n=7 donors). Scr-scrambled; *P<0.05, **P<0.01, ***P<0.001 by Student's two-tailed paired t-test or One-way ANOVA; ns, not significant. Data presented as mean±SEM.
To further explore how Cbl-b regulates the functions of primary human NK cells, we performed RNA-seq analyses using enriched primary NK cells from healthy donors transduced with Cbl-b siRNA or Scr siRNA without or with IL-15 treatment for 16 h (n=4 in each group). […]

[1] = system: Molm-13, MV4-11 or EOL-1 leukemia cell lines; format: cell-based, human
Description: FIGS. 3A-3E depict the results of a study showing that downregulation of Cbl-b enhances the cytotoxicity of primary human NK cells. (FIGS. 3A and 3B) Primary human NK cells transduced with Cbl-b siRNA or Scr siRNA for 24 h were stimulated without (FIG. 3A) or with (FIG. 3B) a low concentration of IL-15 (2 ng/ml) for 16 h, then co-cultured with ^51Cr labeled Molm-13, MV4-11 or EOL-1 leukemia cell lines for 4 h, followed by quantification of specific tumor cell lysis. Each experiment was repeated with 6 different normal donors. (FIG. 3C) qRT-PCR was performed to quantify the granzyme B (GZMB) mRNA levels (n=8 donors) in siRNA- and Scr siRNA-transduced primary human NK cells incubated without or with IL-15 (10 ng/ml) for 16 h. (FIG. 3D) The concentration of the granzyme B protein in the supernatants of Cbl-b siRNA- and Scr siRNA-transduced primary human NK cells incubated without (688.1 pg/ml vs 525.4 pg/ml; P=0.0232) or with IL-15 (10 ng/ml) for 24 h (8789 pg/ml vs 3397 pg/ml; P=0.0232) was measured by ELISA (n=8 donors). (FIG. 3E) The level of granzyme B protein in Cbl-b siRNA- and Scr siRNA-transduced primary human NK cells incubated without or with IL-15 (10 ng/ml) for 24 h was measured by immunoblot analysis. The data are representative of three experiments. Scr-scrambled; *P<0.05, **P<0.01, ***P<0.001, ****P<0.0001 by One-way or Two-way ANOVA; ns, not significant. […]

IFN-γ = IFN-γ mRNA by qRT-PCR in IL-15-activated siRNA-transduced NK cells; format: cell-based, human; conditions: IL-15 (10 ng/ml) 6 h, vs Scr siRNA
Description: as §1
Reverse transcription-polymerase chain reaction. Total RNA was isolated from primary NK cells with the RNeasy Mini Kit (Qiagen). Complementary DNA (cDNA) was generated by Moloney murine leukemia virus (M-MLV) reverse transcriptase (Invitrogen) and amplified by qPCR with SYBR Green PCR Master Mix (Applied Biosystems) and gene-specific primers. […]

perform = test: Perforin protein by immunoblot in siRNA-transduced NK cells; format: cell-based, human; conditions: with IL-15 (10 ng/ml) 24 h, vs Scr siRNA
Description: FIG. 8A Primary human NK cells were transduced with Cbl-b siRNA or a scrambled siRNA (Scr siRNA) for 48 h, directly followed by immunoblot analysis to determine the efficiency of siRNA (n=3 donors). […] FIG. 8B qRT-PCR was performed to quantify the level of perform mRNA (n=7 donors) in Cbl-b siRNA- and Scr siRNA-transduced primary human cells incubated without or with IL-15 (10 ng/ml) for 16 h. FIG. 8C The perform protein level in Cbl-b siRNA- and Scr siRNA-transduced primary human NK cells incubated 24 without or with IL-15 (10 ng/ml) for 24 h was measured by immunoblot analysis. The data are representative of four experiments and are summarized in the right panel. Scr, scrambled; *P<0.05, **P<0.01; ns, not significant. Data are presented as mean±SEM.
Immunoblotting. Cells were harvested and suspended in RIPA lysis buffer (Thermo Fisher Scientific) on ice for 20 minutes. Equal amount of protein was resolved by 5-15% Criterion TGX gel (Bio-Rad) and then transferred onto a Nitrocellulose (NC) or PVDF membrane (Thermo Fisher Scientific). […] Densitometric analysis was performed to quantify intensity of gel bands with Image J (National Institutes of Health).
Both groups were next incubated without or with IL-15 and co-cultured with ^51Cr labeled MV4-11, Molm-13, or EOL-1 leukemia cell lines, followed by assessment of specific lysis measured after 4 h of co-culture.

Cbl-b siRNA: Cbl-b-specific Accell siRNA (Dharmacon), SEQ ID NO:1, CCUUCAUGUUCAGAUGGUU (Accell modified siRNA, pattern not given here)
transcriptional level of granzyme B (RNA-seq) (granzyme B): increased | cytotoxicity (specific lysis) without IL-15 [1]: significant increase in cytotoxicity against three of the four AML cell lines | IFN-γ mRNA (IFN-γ): increased dramatically | total protein level of perform (perform): significantly increased
